Reference: US6924298B2, “2-(3,5-Disubstituted-4-pyridyl)-4-(thienyl, thiazolyl or arylphenyl)-1,3-oxazoline compounds” (Dow AgroSciences LLC, priority 2000, dated 2005)
Read-outs that look alike come from different tables or passages of the source.

How the values were obtained:
Assay type in all cases: in vivo
[1] = system: two-spotted spider mite (Tetranychus urticae); experiment: Insecticidal test for two-spotted spider mite, ovicide method on cotton leaf discs; settings: hatched larvae after 6 days; for pest or weed control: Tetranychus urticae, foliar, 144 h, read-out: SM: activity against two-spotted spider mite (% Control rating)
Protocol: Insecticidal Test for Two-Spotted Spider Mite (Tetranychus urticae) Ovicide Method: Ten adult female two-spotted spider mites were placed on eight 2.2 cm leaf discs of cotton leaf, allowed to oviposit over 24 hours, and thereafter removed. […] Discs were placed on an agar substrate and held at 24° C. and 90% RH for 6 days.

[2] = system: beet armyworm (Spodoptera exigua); experiment: Insecticidal test for beet armyworm, treated lepidopteran diet; settings: for pest or weed control at 400 ppm: Spodoptera exigua, 120 h, read-out: BAW: activity at 400 ppm against beet armyworm (% Control rating)
Protocol: (§1) Insecticidal Test for Tobacco Budworm (Heliothis virescens), Beet Armyworm (Spodoptera exigua), and Cabbage Looper (Trichoplusia ni).
(§2) To prepare the test solution, the test compound was formulated at 400 ppm in 7.5 mL of 2 acetone:1 tap water. 250 μL of the test solution was pipetted upon the surface of 8 mL of lepidopteran diet (modified Shorey) contained in each of five one-ounce plastic cups (one cup=1 replication). A second-instar beet armyworm was placed upon the treated diet in each cup once the solvent had air-dried. The solutions remaining after completing applications to the one-ounce cups were then used as leaf-dip solutions for 3.5 cm leaf discs cut from cabbage leaves and cotton cotyledons. Five discs of each type of plant were dipped until thoroughly coated into each rate of each compound (=5 replications of each treatment). After air-drying, the treated leaf discs were placed individually into one-ounce plastic cups. Each dried, treated cotton cotyledon disc was infested with a 2nd instar tobacco budworm larva, and each cabbage leaf disc was infested with a 2nd instar cabbage looper larva. Cups containing the treated substrates and larvae were capped and then held in a growth chamber at 25° C., 50-55% RH, and 14 hr light: 10 hr dark for 5 days.

[3] = system: cabbage looper (Trichoplusia ni); experiment: Insecticidal test for cabbage looper, treated cabbage leaf disc; settings: for pest or weed control at 400 ppm: Trichoplusia ni, foliar, 120 h, read-out: CL: activity at 400 ppm against cabbage looper (% Control rating)
Protocol: as §1, §2

[4] = system: cotton aphid (Aphis gossypii); experiment: Insecticidal test for cotton aphid, spray on infested squash cotyledons; settings: for pest or weed control at 50 ppm: Aphis gossypii, 72 h, read-out: CA: activity at 50 ppm against cotton aphid (% Control rating)
Protocol: Insecticidal Test for Cotton Aphid (Aphis gossypii)
To prepare spray solutions, 1 mg of each test compound was dissolved into 1 mL of a 90:10 acetone:ethanol solvent. This 1 mL of chemical solution was added to 19 mL of water containing 0.05% Tween 20 surfactant to produce a 50 ppm spray solution.
Squash cotyledons were infested with cotton aphid (all life stages)16-20 hours prior to application of spray solution. The solution was sprayed on both sides of each infested squash cotyledon (0.5 mL×2 each side) with a sweeping action until runoff. The plants were allowed to air dry and held for 3 days in a controlled room at 26° C. and 40% RH after which time the test was graded. Grading was by actual count using a dissecting microscope and comparison of test counts to the untreated check. Results are given in Tables 1-4 as percent control based on population reduction versus the untreated.

[5] = system: tobacco budworm (Heliothis virescens); experiment: Insecticidal test for tobacco budworm, treated cotton cotyledon leaf disc; settings: for pest or weed control at 400 ppm: Heliothis virescens, foliar, 120 h, read-out: TBW: activity at 400 ppm against tobacco budworm (% Control rating)
Protocol: as §1, §2

[6] = system: sweetpotato whitefly (Bemisia tabacia); experiment: Insecticidal test for sweetpotato whitefly, spray on cotton plants; settings: 312 h, 200 ppm spray, large nymphs counted after 13 days, read-out: WF: activity at 200 ppm against whitefly (% Control rating)
Protocol: Insecticidal Test for Sweetpotato Whitefly (Bemisia tabacia)
Four mg of each test compound was dissolved by adding 4 mL of a 90:10 acetone:ethanol solvent mixture to the vial containing the sample compound. This solution was added to 16 mL of water containing 0.05% Tween 20 surfactant to produce 20 mL of a 200 ppm spray solution.
Five-week-old cotton plants reared in a greenhouse were stripped of all foliage except for the two uppermost true leaves that were greater than 5 cm in diameter.
These plants were then placed into a laboratory colony of whiteflies for two days for oviposition by the colony females. All whiteflies were then removed from the test plants with pressurized air. The spray solution was then applied to the test plants with a hand-held syringe fitted with hollow cone nozzle. One mL of spray solution was applied to each leaf top and bottom for a total of 4 mL per plant. Four replications of each test compound utilized a total of 16 mL spray solution. Plants were air dried and then placed in a holding chamber (28° C. and 60% RH) for 13 days. Compound efficacy was evaluated by counting, under an illuminated magnifying glass, the number of large nymphs (3rd-4th instar) per leaf.
Percent control based on reduction of large nymphs of a test compound compared to solution-only (no test compound) sprayed plants is reported in Tables 1-4.

[7] = 400 ppm, treated diet surface, second-instar larvae, 5 days
[8] = 400 ppm, leaf-dip cabbage leaf disc, 2nd instar larvae, 5 days
[9] = 50 ppm spray, squash cotyledons, all life stages, 3 days
[10] = 400 ppm, leaf-dip cotton cotyledon disc, 2nd instar larvae, 5 days

Compound | pest or weed control [1] | pest or weed control at 200 ppm [6] | pest or weed control at 400 ppm [2, 7] | pest or weed control at 400 ppm [3, 8] | pest or weed control at 50 ppm [4, 9] | pest or weed control at 400 ppm [5, 10] | other results
4-[5-Methyl-4-(4′-trifluoromethoxybiphenyl)-4-yl)-4,5-dihydro-oxazol-2-yl]-3,5-dichloropyridines [Compound 47] | – | – | – | – | – | – | SM: activity at 2.5 ppm against two-spotted spider mite (% Control rating) [1]: A (90-100); BAW: activity at 400 ppm against beet armyworm (% Control rating) [2, 7]: A (90-100); CL: activity at 400 ppm against cabbage looper (% Control rating) [3, 8]: A (90-100); CA: activity at 50 ppm against cotton aphid (% Control rating) [4, 9]: A (90-100); TBW: activity at 400 ppm against tobacco budworm (% Control rating) [5, 10]: A (90-100)
FC(F)(F)c1ccc(-c2ccc(C3COC(c4c(Cl)cncc4Cl)=N3)cc2)cc1 (stereo not drawn) [Compound 5] | 90 to 100% | < 50% | 90 to 100% | 90 to 100% | 80 to 89% | < 50% | –
CCOc1ccc(-c2ccc(C3COC(c4c(Cl)cncc4Cl)=N3)cc2)cc1 (stereo not drawn) [Compound 12, 2-(3,5-dichloro-4-pyridinyl)-4-(4-(4-ethoxyphenyl)phenyl)oxazoline] | 90 to 100% | 80 to 89% | 90 to 100% | 60 to 69% | 80 to 89% | 80 to 89% | –
Clc1ccc(-c2ccc(C3COC(c4c(Cl)cncc4Cl)=N3)cc2)cc1 (stereo not drawn) [Compound 16] | 90 to 100% | – | – | – | – | – | pest or weed control at 400 ppm [2]: 90 to 100%; pest or weed control at 400 ppm [3]: 90 to 100%; pest or weed control at 50 ppm [4]: < 50%; pest or weed control at 400 ppm [5]: 60 to 69%
FC(F)(F)c1ccc(-c2ccc(C3COC(c4c(Cl)cncc4Cl)=N3)cc2)c(Cl)c1 (stereo not drawn) [Compound 17] | 90 to 100% | < 50% | 90 to 100% | 90 to 100% | 60 to 69% | – | –
Cc1cccc(-c2ccc(C3COC(c4c(Cl)cncc4Cl)=N3)cc2)c1 (stereo not drawn) [Compound 27] | 80 to 89% | – | – | – | – | – | pest or weed control at 400 ppm [2]: 90 to 100%; pest or weed control at 400 ppm [3]: 90 to 100%; pest or weed control at 50 ppm [4]: 90 to 100%; pest or weed control at 400 ppm [5]: < 50%
Fc1ccc(-c2ccc(C3COC(c4c(Cl)cncc4Cl)=N3)cc2)cc1C(F)(F)F (stereo not drawn) [Compound 29] | 70 to 79% | – | 80 to 89% | 90 to 100% | < 50% | 80 to 89% | –
CC(C)c1ccc(-c2ccc(C3COC(c4c(Cl)cncc4Cl)=N3)cc2)cc1 (stereo not drawn) [Compound 30] | 70 to 79% | < 50% | 90 to 100% | 60 to 69% | < 50% | – | –
Fc1c(-c2ccc(C3COC(c4c(Cl)cncc4Cl)=N3)cc2)cccc1C(F)(F)F (stereo not drawn) [Compound 31] | < 50% | – | – | – | – | 60 to 69% | –
Fc1cc(C(F)(F)F)ccc1-c1ccc(C2COC(c3c(Cl)cncc3Cl)=N2)cc1 (stereo not drawn) [Compound 32] | 90 to 100% | 90 to 100% | 90 to 100% | – | 70 to 79% | 90 to 100% | –
C[S+]([O-])c1ccc(-c2ccc(C3COC(c4c(Cl)cncc4Cl)=N3)cc2)cc1 (stereo not drawn) [Compound 36] | – | < 50% | – | 90 to 100% | < 50% | 60 to 69% | –
Fc1cncc(F)c1C1=NC(c2ccc(-c3ccc(C(F)(F)F)cc3)cc2)CO1 (stereo not drawn) [Compound 39, 2-(3,5-difluoro-4-pyridinyl)-4-(4-(4-trifluoromethylphenyl)phenyl)-oxazoline] | 90 to 100% | < 50% | 80 to 89% | 90 to 100% | < 50% | – | –
Cc1cc(-c2ccc(C(F)(F)F)cc2)ccc1C1COC(c2c(Cl)cncc2Cl)=N1 (stereo not drawn) [Compound 43, 2-(3,5-dichloro-4-pyridinyl)-4-(4-(4-trifluoromethylphenyl)-2-methylphenyl)-oxazoline] | 80 to 89% | < 50% | 90 to 100% | 90 to 100% | 80 to 89% | 90 to 100% | –
Cc1cc(-c2ccc(OC(F)(F)F)cc2)ccc1C1COC(c2c(Cl)cncc2Cl)=N1 (stereo not drawn) [Compound 44, 2-(3,5-dichloro-4-pyridinyl)-4-(4-(4-trifluoromethoxyphenyl)-2-methylphenyl)-oxazoline] | 90 to 100% | 50 to 59% | 90 to 100% | 90 to 100% | 80 to 89% | 90 to 100% | –
C[C@H]1OC(c2c(Cl)cncc2Cl)=N[C@@H]1c1ccc(-c2ccc(OC(F)(F)F)cc2)cc1 [Compound 48] | 50 to 59% | < 50% | – | 90 to 100% | 80 to 89% | 90 to 100% | –
